Measured values from ChEMBL document CHEMBL3232737, “Synthesis and in vitro evaluation of small-molecule [18F] labeled gonadotropin-releasing hormone (GnRH) receptor antagonists as potential PET imaging agents for GnRH receptor expression” (Bioorg Med Chem Lett, 2014).
Each block holds one molecule with its values, some of them ahead of it.

Tests used:
[1] = biological target: T1, Gonadotropin-releasing hormone receptor (Rattus norvegicus, UniProt P30969); test: Displacement of [125I]Triptorelin from rat full-length gonadotropin-releasing hormone receptor expressed in HEK293 cells; format: cell-based
T1 sequence (P30969 whole entry): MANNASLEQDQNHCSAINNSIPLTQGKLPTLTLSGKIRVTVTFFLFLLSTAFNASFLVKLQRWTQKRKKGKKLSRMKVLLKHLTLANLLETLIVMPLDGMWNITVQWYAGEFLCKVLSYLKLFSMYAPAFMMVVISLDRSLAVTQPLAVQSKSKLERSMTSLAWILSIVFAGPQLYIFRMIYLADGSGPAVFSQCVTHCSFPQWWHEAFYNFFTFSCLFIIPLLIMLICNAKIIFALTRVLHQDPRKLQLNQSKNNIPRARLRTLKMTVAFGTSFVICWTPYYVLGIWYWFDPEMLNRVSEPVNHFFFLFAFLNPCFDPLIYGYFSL

[2] = Octanol-PBS partition coefficient, log P of the compound at 10 kBq at pH 7.4 by gamma counting analysis; format: physicochemical
[3] = biological target: T2, Gonadotropin-releasing hormone receptor (Homo sapiens, UniProt P30968); test: Binding affinity to human gonadotropin-releasing hormone receptor by radioligand displacement assay
T2 sequence (P30968 whole entry): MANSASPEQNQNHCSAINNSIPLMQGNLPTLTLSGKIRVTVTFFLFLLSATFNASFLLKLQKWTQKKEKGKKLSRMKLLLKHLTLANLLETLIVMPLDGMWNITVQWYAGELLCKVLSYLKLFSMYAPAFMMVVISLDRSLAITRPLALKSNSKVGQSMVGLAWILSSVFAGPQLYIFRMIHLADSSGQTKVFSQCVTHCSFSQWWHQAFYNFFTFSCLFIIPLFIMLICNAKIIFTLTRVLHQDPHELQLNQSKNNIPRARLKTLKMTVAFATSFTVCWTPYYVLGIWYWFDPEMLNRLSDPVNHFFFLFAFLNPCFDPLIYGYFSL

[4] = biological target: T3, Gonadotropin-releasing hormone receptor (Mus musculus, UniProt Q01776); test: Binding affinity to mouse gonadotropin-releasing hormone receptor by radioligand displacement assay
T3 sequence (Q01776 whole entry): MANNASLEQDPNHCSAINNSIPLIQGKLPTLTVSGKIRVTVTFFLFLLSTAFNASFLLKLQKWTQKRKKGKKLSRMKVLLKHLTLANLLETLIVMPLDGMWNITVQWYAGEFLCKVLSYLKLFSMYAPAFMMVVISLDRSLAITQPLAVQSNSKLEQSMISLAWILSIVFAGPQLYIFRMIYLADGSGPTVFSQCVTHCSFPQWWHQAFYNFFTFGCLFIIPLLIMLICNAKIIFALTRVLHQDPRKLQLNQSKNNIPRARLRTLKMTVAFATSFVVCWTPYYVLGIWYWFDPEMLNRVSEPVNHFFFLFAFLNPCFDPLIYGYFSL

Ki [1]: 42 nM
Structure (SMILES): COc1nc(F)nc(OC)c1NC(=O)c1ccc(Oc2cc3c(cc2C)CCC3(C)C)o1

logD [2]: 1.74
Structure (SMILES): COc1nc(OCC[18F])nc(OC)c1NC(=O)c1ccc(Oc2cc3c(cc2C)CCC3(C)C)o1

Ki [3]: 6 nM
Ki [4]: 2.2 nM
Structure (SMILES): COc1cc(OC)c(NC(=O)c2ccc(Cc3cc4c(cc3C)C(C)(C)CCC4(C)C)o2)c(OC)c1

Ki [1]: 1.36 nM
Structure (SMILES): COc1nc(OCCF)nc(OC)c1NC(=O)c1ccc(Oc2cc3c(cc2C)CCC3(C)C)o1
